Here are results for 49 molecules from ChEMBL document CHEMBL2016464, “Identification of Inhibitors of NOD1-Induced Nuclear Factor-κB Activation” (ACS Med Chem Lett, 2011).

The IC50 is the point on the concentration scale where inhibition reaches its midpoint. A high value points to lower potency. As usually defined, the solubility is the concentration that dissolves in the medium under given conditions.

A short description of one data set: cells. Conditions: Homo sapiens, HEK-293T, 14 h.
In data set [1] the target is Nucleotide-binding oligomerization domain-containing protein 2 (Homo sapiens, UniProt Q9HC29).
The subject of another data set is HEK-293T. The data set can be described thus: Cytotoxicity against HEK293T cells at 20 uM by alamar blue assay. The note with it: human. Format: cell-based. For orientation: The colour change of resazurin is a common sign of viable cells or microbes.
Data set [2] is described as follows: Solubility of the compound at pH 7.4. It is filed as physicochemical. The note with it: buffer.

≈ marks a conversion by molar mass, not a printed value.

Chain of Nucleotide-binding oligomerization domain-containing protein 2 (Q9HC29 whole entry, the tested form may be a part): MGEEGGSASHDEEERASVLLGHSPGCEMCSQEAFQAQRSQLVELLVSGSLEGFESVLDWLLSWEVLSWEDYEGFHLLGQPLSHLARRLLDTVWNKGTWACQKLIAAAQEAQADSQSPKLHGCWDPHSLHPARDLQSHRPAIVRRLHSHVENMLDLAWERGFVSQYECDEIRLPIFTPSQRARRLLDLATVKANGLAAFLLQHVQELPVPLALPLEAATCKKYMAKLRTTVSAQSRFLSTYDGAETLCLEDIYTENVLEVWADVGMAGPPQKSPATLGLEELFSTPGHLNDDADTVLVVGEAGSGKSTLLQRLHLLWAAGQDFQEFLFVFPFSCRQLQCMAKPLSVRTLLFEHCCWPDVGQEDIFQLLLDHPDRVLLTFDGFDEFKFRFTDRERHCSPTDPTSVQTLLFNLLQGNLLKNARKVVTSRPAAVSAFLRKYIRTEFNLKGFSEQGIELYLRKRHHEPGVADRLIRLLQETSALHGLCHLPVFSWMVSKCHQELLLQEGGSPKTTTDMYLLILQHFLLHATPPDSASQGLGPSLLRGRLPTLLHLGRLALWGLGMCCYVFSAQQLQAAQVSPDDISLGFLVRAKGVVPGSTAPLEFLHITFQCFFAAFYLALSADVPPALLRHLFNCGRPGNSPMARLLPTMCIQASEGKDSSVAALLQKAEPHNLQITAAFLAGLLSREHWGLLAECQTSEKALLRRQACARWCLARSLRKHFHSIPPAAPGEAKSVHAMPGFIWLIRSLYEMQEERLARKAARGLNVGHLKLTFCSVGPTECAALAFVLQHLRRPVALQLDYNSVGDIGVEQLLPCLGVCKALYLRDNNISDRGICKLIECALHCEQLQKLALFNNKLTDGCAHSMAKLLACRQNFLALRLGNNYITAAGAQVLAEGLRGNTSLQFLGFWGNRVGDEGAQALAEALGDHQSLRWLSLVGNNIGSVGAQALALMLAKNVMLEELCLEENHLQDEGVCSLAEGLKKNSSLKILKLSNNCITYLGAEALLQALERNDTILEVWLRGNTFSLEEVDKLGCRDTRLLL
Description for cells: Inhibition of TNFalpha-induced NFkappaB activation in HEK293T cells after 14 hrs by luciferase reporter gene assay

Turning to `CSc1ccc(NC(=O)c2ccc(CN3CCc4ccccc4C3)cc2)cc1`, the IC50 came to 0.37 µM in “cells” and 0.26 µM in data set [1]. For the same molecule, the Activity with HEK-293T is reported as 0%.

Regarding `CC(=O)N1c2ccc(S(=O)(=O)N3CCN(c4ccc(C)cc4)CC3)cc2CC1C` (racemic), the concentration in solution in data set [2] (solubility) came to 0.1 µg/mL (≈ 0.242 µM). The IC50 was determined as 4.32 µM in the data set “cells” and 3.45 µM in data set [1]. Besides, the Activity with HEK-293T is 0%.

In turn, `CC(=O)N1CCc2cc(S(=O)(=O)N3CCN(c4ccc(C#N)cc4)CC3)ccc21` returned a solubility in data set [2] of 0.1 µg/mL (≈ 0.244 µM). Further, in the data set “cells”, the IC50 came out at 8.79 µM. For the same molecule, the Activity in the data set on HEK-293T is recorded as 0%.

On to `CC1Cc2cc(S(=O)(=O)N3CCN(c4ccc([N+](=O)[O-])cc4)CC3)ccc2N1C(=O)C1CC1` (racemic), for which the solubility in data set [2] was found to be 0.1 µg/mL (≈ 0.213 µM). In addition, the IC50 in “cells” stood at 0.24 µM; in data set [1] it was 0.2 µM. Also, in the data set on HEK-293T, the Activity turned out to be 0%.

As to `CC(=O)N1c2ccc(S(=O)(=O)N3CCN(c4ccc(Cl)cc4)CC3)cc2CC1C` (racemic), in data set [2], the solubility is 0.1 µg/mL (≈ 0.23 µM). Besides, the IC50 came out at 5.76 µM in the data set “cells” and 1.75 µM in data set [1]. In the data set on HEK-293T, this molecule yielded an Activity of 0%.

On to `O=C(Nc1ccc(Br)cc1)c1ccc(CN2CCc3ccccc3C2)cc1`, for which the IC50 in “cells” turned out to be 1.5 µM. In the data set with HEK-293T, this molecule showed an Activity of 0%.

As to `O=C(Nc1ccc(Cl)cc1)c1ccc(CN2CCc3ccccc3C2)cc1`, the IC50 in “cells” came to 0.49 µM; in data set [1], 3.54 µM. Further, the Activity with HEK-293T turned out to be 0%.

Turning to `CCOc1ccc(NC(=O)c2ccc(CN3CCc4ccccc4C3)cc2)cc1`, the IC50 in the data set “cells” came out at 2.05 µM; in data set [1], 0.57 µM. In the data set with HEK-293T, the Activity is recorded as 0%.

For `CC(=O)c1ccc(N2CCN(S(=O)(=O)c3ccc4c(c3)CCN4C(=O)C3CC3)CC2)cc1`, the concentration for half-maximal inhibition (IC50) in “cells” was greater than 20 µM. In the data set on HEK-293T, this molecule displayed an Activity of 0%.

Consider `O=C(C1CC1)N1CCc2cc(S(=O)(=O)N3CCN(c4ccc([N+](=O)[O-])cc4)CC3)ccc21`, for which the solubility in data set [2] was found to be 0.1 µg/mL (≈ 0.219 µM). This molecule returned an IC50 in “cells” greater than 20 µM. In the data set with HEK-293T, this molecule returned an Activity of 0%.

As for `Cc1ccc(S(=O)(=O)n2c(C)nc3ccccc32)cc1`, the Activity with HEK-293T came to 0%.

With `CCOC(=O)c1ccc(NC(=O)c2ccc(CN3CCc4ccccc4C3)cc2)cc1`, the values for the IC50 (in “cells”; in data set [1]) were 0.14 µM and 0.4 µM, respectively. Further, the Activity with HEK-293T is recorded as 0%.

For the molecule `CCOc1ccc(NC(=O)c2ccc(CN3CCCCC3)cc2)cc1`, the IC50 in the data set “cells” was greater than 20 µM. The molecule further registered an Activity in the data set on HEK-293T of 0%.

Take `CCOC(=O)c1ccc(NC(=O)c2ccc(CCN3CCc4ccccc4C3)cc2)cc1`: the values for the IC50 (in the data set “cells”; in data set [1]) were 10.8 µM and greater than 20 µM, respectively. Further, the Activity with HEK-293T turned out to be 0%.

In the case of `Cc1ccc(S(=O)(=O)n2cnc3ccccc32)cc1`, the IC50 (in “cells”; in data set [1]) was greater than 20 µM each time. Also, in the data set on HEK-293T, the Activity is recorded as 0%.

In the data set on HEK-293T, `Nc1nc2ccccc2n1C(=O)c1ccc(Cl)cc1Cl` returned an Activity of 0%.

With `O=C(Nc1ccc(F)cc1)c1ccc(CN2CCCCC2)cc1`, the IC50 in “cells” is greater than 20 µM. Also, in the data set on HEK-293T, the Activity amounted to 0%.

`CCC(=O)N1CCc2cc(S(=O)(=O)N3CCN(c4ccc(C#N)cc4)CC3)ccc21`: the IC50 in “cells” was greater than 20 µM. In the data set with HEK-293T, the Activity came to 0%.

`CCC(=O)N1c2ccc(S(=O)(=O)N3CCN(c4ccc(C(C)=O)cc4)CC3)cc2CC1C` (racemic) had a solubility in data set [2] of 0.1 µg/mL (≈ 0.22 µM). In addition, the IC50 in the data set “cells” was 1.63 µM; in data set [1], 1.58 µM. The Activity in the data set with HEK-293T was 0%.

As for `CC1Cc2cc(S(=O)(=O)N3CCN(c4ccc(Cl)cc4)CC3)ccc2N1C(=O)C1CC1` (racemic), the solubility in data set [2] worked out at 0.1 µg/mL (≈ 0.217 µM). Further, the 50% inhibitory concentration (IC50) turned out to be 7.26 µM in the data set “cells” and 3.63 µM in data set [1]. This molecule registered an Activity with HEK-293T of 0%.

In the data set “cells”, `CC(=O)N1CCc2cc(S(=O)(=O)N3CCN(c4ccc([N+](=O)[O-])cc4)CC3)ccc21` had an IC50 greater than 20 µM. In the data set with HEK-293T, this molecule yielded an Activity of 0%.

On to `Nc1nc2ccccc2n1Cc1ccc(Cl)cc1`, for which the IC50 in “cells” is greater than 20 µM. The molecule further returned an Activity with HEK-293T of 0%.

In the data set “cells”, `Nc1nc2ccccc2n1S(=O)(=O)c1ccccc1` displayed an IC50 greater than 20 µM. In addition, the Activity in the data set with HEK-293T was found to be 0%.

Molecule `CC(=O)N1c2ccc(S(=O)(=O)N3CCN(c4ccc([N+](=O)[O-])cc4)CC3)cc2CC1C` (racemic) registered an IC50 in the data set “cells” of 3.27 µM. The molecule further came in with an Activity with HEK-293T of 0%.

With `CN(C)c1ccc(NC(=O)c2ccc(CN3CCc4ccccc43)cc2)cc1`, the IC50 in “cells” is greater than 20 µM. In the data set on HEK-293T, the Activity is on record as 0%.

With `CC(=O)N1c2ccc(S(=O)(=O)N3CCN(c4ccccc4)CC3)cc2CC1C` (racemic), the concentration in solution in data set [2] (solubility) came to 0.1 µg/mL (≈ 0.25 µM). For the same molecule, the results for the half-inhibitory concentration (IC50) (in “cells”; in data set [1]) were 14.1 µM and 8.27 µM, respectively. For the same molecule, the Activity in the data set with HEK-293T was found to be 0%.

`CC(=O)N1CCc2cc(S(=O)(=O)N3CCN(c4ccc(Cl)cc4)CC3)ccc21` yielded an IC50 in “cells” greater than 20 µM. The same molecule yielded an Activity in the data set on HEK-293T of 0%.

Regarding `COc1ccc(S(=O)(=O)n2c(N)nc3ccccc32)cc1`, the Activity in the data set on HEK-293T was 0%.

In the data set with HEK-293T, `Nc1nc2ccccc2n1S(=O)(=O)c1ccc([N+](=O)[O-])cc1` displayed an Activity of 0%.

Molecule `CC(=O)c1ccc(N2CCN(S(=O)(=O)c3ccc4c(c3)CC(C)N4C(C)=O)CC2)cc1` (racemic) registered a solubility in data set [2] of 0.1 µg/mL (≈ 0.226 µM). Further, the results for the IC50 (in “cells”; in data set [1]) were 6 µM and 3.72 µM, respectively. Further, the Activity in the data set on HEK-293T is 0%.

In data set [2], `COc1ccc(N2CCN(S(=O)(=O)c3ccc4c(c3)CC(C)N4C(=O)C3CC3)CC2)cc1` (racemic) had a solubility of 0.1 µg/mL (≈ 0.22 µM). Further, the results for the IC50 (in the data set “cells”; in data set [1]) were 3.85 µM and 0.39 µM, respectively. For the same molecule, the Activity in the data set with HEK-293T came out at 0%.

In “cells”, `Nc1nc2ccccc2n1CCC(=O)c1ccc(Cl)cc1` showed an IC50 greater than 20 µM. Besides, the Activity in the data set with HEK-293T was 0%.

Molecule `Cc1ccc(S(=O)(=O)n2c(N)nc3cc(C)c(C)cc32)cc1` displayed an IC50 in the data set “cells” greater than 20 µM. For the same molecule, the Activity with HEK-293T was found to be 0%.

In “cells”, `CCC(=O)N1CCc2cc(S(=O)(=O)N3CCN(c4ccc([N+](=O)[O-])cc4)CC3)ccc21` returned a half-maximal inhibitory concentration (IC50) greater than 20 µM. This molecule also yielded an Activity with HEK-293T of 0%.

Regarding `COc1ccc(N2CCN(S(=O)(=O)c3ccc4c(c3)CC(C)N4C(C)=O)CC2)cc1` (racemic), the concentration in solution in data set [2] (solubility) came to 0.1 µg/mL (≈ 0.233 µM). The values for the IC50 (in “cells”; in data set [1]) were 4.3 µM and 3.29 µM, respectively. Besides, in the data set on HEK-293T, the Activity came out at 0%.

In “cells”, `O=C(Nc1ccc(F)cc1)c1ccc(CN2CCc3ccccc32)cc1` returned an IC50 greater than 20 µM. The Activity in the data set with HEK-293T is reported as 0%.

For `COc1ccc(NC(=O)c2ccc(CN3CCc4ccccc4C3)cc2)cc1`, the IC50 turned out to be 0.65 µM in the data set “cells” and 0.78 µM in data set [1]. This molecule also showed an Activity with HEK-293T of 0%.

In turn, `Nc1nc2ccccc2n1C(=O)c1ccc(F)cc1` yielded an Activity in the data set on HEK-293T of 0%.

For `CSc1ccc(NC(=O)c2ccc(CN3CCCCC3)cc2)cc1`, the IC50 in “cells” was greater than 20 µM. The same molecule came in with an Activity in the data set on HEK-293T of 0%.

In the case of `CC(=O)c1ccc(N2CCN(S(=O)(=O)c3ccc4c(c3)CCN4C(C)=O)CC2)cc1`, the IC50 in the data set “cells” was greater than 20 µM. Moreover, the Activity in the data set with HEK-293T is listed as 0%.

As for `CCC(=O)N1c2ccc(S(=O)(=O)N3CCN(c4ccc([N+](=O)[O-])cc4)CC3)cc2CC1C` (racemic), the concentration in solution in data set [2] (solubility) came to 0.1 µg/mL (≈ 0.218 µM). Besides, the IC50 stood at 4.92 µM in the data set “cells” and 1.55 µM in data set [1]. In addition, the Activity with HEK-293T is 0%.

In the data set “cells”, `N#Cc1ccc(N2CCN(S(=O)(=O)c3ccc4c(c3)CCN4C(=O)C3CC3)CC2)cc1` returned an IC50 greater than 20 µM. Besides, the Activity in the data set with HEK-293T was 0%.

For `CN(C)c1ccc(NC(=O)c2ccc(CN3CCCCC3)cc2)cc1`, the IC50 in “cells” is greater than 20 µM. Moreover, the Activity in the data set on HEK-293T worked out at 0%.

`Nc1nc2ccccc2n1S(=O)(=O)c1ccc(Cl)cc1` yielded an Activity in the data set with HEK-293T of 0%.

The molecule `Cc1ccc(S(=O)(=O)n2c(S)nc3ccc(C)cc32)cc1` had an IC50 in the data set “cells” greater than 20 µM. Besides, the Activity in the data set with HEK-293T worked out at 0%.

On to `O=C(Nc1ccc(F)cc1)c1ccc(CN2CCc3ccccc3C2)cc1`, for which the figures for the IC50 (in “cells”; in data set [1]) were 2.88 µM and 1.85 µM, respectively. The molecule also had an Activity with HEK-293T of 0%.

Regarding `CN(C)c1ccc(NC(=O)c2ccc(CN3CCc4ccccc4C3)cc2)cc1`, the values for the IC50 (in the data set “cells”; in data set [1]) were 1.83 µM and 3.58 µM, respectively. Moreover, the Activity in the data set with HEK-293T turned out to be 0%.

With `Cc1ccc(NC(=O)c2ccc(CN3CCc4ccccc4C3)cc2)cc1`, the IC50 (in the data set “cells”; in data set [1]) was greater than 20 µM in each case. In addition, the Activity in the data set on HEK-293T turned out to be 0%.

Molecule `CCC(=O)N1c2ccc(S(=O)(=O)N3CCN(c4ccc(Cl)cc4)CC3)cc2CC1C` (racemic) yielded a solubility in data set [2] of 0.1 µg/mL (≈ 0.223 µM). Further, the values for the IC50 (in the data set “cells”; in data set [1]) were 0.58 µM and 0.6 µM, respectively. In addition, in the data set with HEK-293T, the Activity amounted to 0%.
